Holding throughout (format): cell-based
Test [1] deals with MZ-CRC-1 medullary thyroid carcinoma, harboring a mutated RET-M918T receptor. Briefly: In vitro cell proliferation assay (CellTiterGlo), MZ-CRC-1. Conditions: Homo sapiens, antiproliferative activity, 144 h exposure. How it is done: (§1) In Vitro Cell Proliferation Assay
(§2) To evaluate the antiproliferative activity of a compound of formula (I) the following human cell lines were used: A2780 ovarian carcinoma; TT and MZ-CRC-1 medullary thyroid carcinoma, harboring a mutated RET-C634W and RET-M918T receptor respectively; LC-2/ad human lung adenocarcinoma, harboring the CCDC6-RET fusion protein. Exponentially growing cells were seeded and incubated at 37° C. in a humidified 5% CO2 atmosphere using appropriate medium supplemented with 10% Fetal Bovine Serum. 24 hours following cell plating, scalar doses of the compounds dissolved in 0.1% DMSO were added to the medium and cells were exposed to drugs for either 72 hours (A2780) or 144 hours (TT, MZ-CRC-1 and LC-2/ad), according to their different proliferation rate. At the end of treatment, cell proliferation was determined by an intracellular ATP monitoring system (CellTiterGlo—Promega), following manufacturer's instructions, and using an Envision instrument (PerkinElmer) as reader. Data obtained from compound versus vehicle treated cells were compared using Assay Explorer (Symyx Technologies Inc) software. IC50 values were calculated using sigmoidal interpolation curve fitting.
(§3) In the following Table A the antiproliferative activity of representative compounds of formula (I) on two medullary thyroid carcinoma cell lines expressing the aforementioned mutated forms of RET (TT and MZ-CRC-1) and on one lung adenocarcinoma cell line harboring the aforementioned fusion form of RET (LC-2/ad) is reported. As control, the antiproliferative activity of the same compounds on an unrelated non RET-dependent cell line (A2780) is reported. All these compounds show remarkable activity on RET-driven cellular models with respect to the unrelated ones.

The subject of a further test is A2780 ovarian carcinoma. Briefly: In vitro cell proliferation assay (CellTiterGlo), A2780 control line. The conditions noted are these: Homo sapiens, antiproliferative activity, 72 hours exposure, non RET-dependent control cell line. The protocol: as §1, §2, §3
For orientation: In ATP-based viability assays light output follows the ATP content of the culture.

Test [2] has as its system TT medullary thyroid carcinoma, harboring a mutated RET-C634W receptor. Briefly: In vitro cell proliferation assay (CellTiterGlo), TT. Conditions: Homo sapiens, antiproliferative activity, 144 h exposure. How it is done: as §1, §2, §3
Test [3] deals with LC-2/ad human lung adenocarcinoma, harboring the CCDC6-RET fusion protein. Briefly: In vitro cell proliferation assay (CellTiterGlo), LC-2/ad. The conditions noted are these: antiproliferative activity, 144 h exposure. How it is done: as §1, §2, §3

In the case of `CC(C)n1cc(C#Cc2cccc(C(=O)NC3CC3)c2)c2c(N)ncnc21` [cmpd 40, 3-{[4-amino-7-(propan-2-yl)-7H-pyrrolo[2,3-d]pyrimidin-5-yl]ethynyl}-N-cyclopropylbenzamide], the IC50 (usually the point on the concentration scale where inhibition reaches its midpoint) came to 0.049 µM in test [1], 1930 nM with A2780 ovarian carcinoma, 0.022 µM in test [2] and 0.033 µM in test [3].

Regarding `Cc1ccc(C(=O)NC2CC2)cc1C#Cc1cn(CC(F)(F)F)c2ncnc(N)c12` [cmpd 52, 3-{[4-amino-7-(2,2,2-trifluoroethyl)-7H-pyrrolo[2,3-d]pyrimidin-5-yl]ethynyl}-N-cyclopropyl-4-methylbenzamide], the half-inhibitory concentration (IC50) in test [1] was 0.201 µM; in the test with A2780 ovarian carcinoma, 3910 nM; in test [2], 0.1 µM; in test [3] it was 0.107 µM.

For `Nc1ncnc2c1c(C#Cc1cc(C(=O)NC3CC3)ccc1F)cn2CC(F)(F)F` [cmpd 54, 3-{[4-amino-7-(2,2,2-trifluoroethyl)-7H-pyrrolo[2,3-d]pyrimidin-5-yl]ethynyl}-N-cyclopropyl-4-fluorobenzamide], the IC50 in test [1] came to 0.068 µM; in the test with A2780 ovarian carcinoma, 3290 nM; in test [2], 0.02 µM; in test [3], 0.053 µM.

In the case of `Nc1ncnc2c1c(C#Cc1cc(F)cc(C(=O)NC3CC3)c1)cn2CC(F)(F)F` [cmpd 59, 3-{[4-amino-7-(2,2,2-trifluoroethyl)-7H-pyrrolo[2,3-d]pyrimidin-5-yl]ethynyl}-N-cyclopropyl-5-fluorobenzamide], the concentration for half-maximal inhibition (IC50) was found to be 0.04 µM in test [1], 2140 nM in the test on A2780 ovarian carcinoma, 0.036 µM in test [2] and 0.048 µM in test [3].

As for `Cn1cc(C#Cc2cccc(C(=O)NC3CC3)c2)c2c(N)ncnc21` [cmpd 93, 3-[(4-amino-7-methyl-7H-pyrrolo[2,3-d]pyrimidin-5-yl)ethynyl]-N-cyclopropylbenzamide], the IC50 in test [1] was determined as 0.264 µM; with A2780 ovarian carcinoma, 4540 nM; in test [2] it was 0.035 µM; in test [3] it was 0.241 µM.
